Test results taken from patent publication US20130109682A1, “CYCLIC ETHER COMPOUNDS USEFUL AS KINASE INHIBITORS” (NOVARTIS AG, priority 2010, published 2013).

Tests used:
[1] = tested on: KMS11 (human myeloma cell line); assay: Cell proliferation assay (CellTiter-Glo), KMS11; assay type: cell-based; details: KMS11-Luc cells
Summary of the method: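 KMS11 cells in IMDM with 10% FBS and sodium pyruvate, seeded at 2000 cells/well on assay day. Compound added at 2× to equal volume of cells, incubated 3 days at 37° C. Viability read by CellTiter-Glo luminescence; EC50 derived.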

GSK3β = GSK3β (Homo sapiens, UniProt P49841); assay: GSK3β ATP depletion assay; assay type: biochemical; details: read-out: GSK3b IC50
GSK3β, sequence (P49841 whole entry, species assumed): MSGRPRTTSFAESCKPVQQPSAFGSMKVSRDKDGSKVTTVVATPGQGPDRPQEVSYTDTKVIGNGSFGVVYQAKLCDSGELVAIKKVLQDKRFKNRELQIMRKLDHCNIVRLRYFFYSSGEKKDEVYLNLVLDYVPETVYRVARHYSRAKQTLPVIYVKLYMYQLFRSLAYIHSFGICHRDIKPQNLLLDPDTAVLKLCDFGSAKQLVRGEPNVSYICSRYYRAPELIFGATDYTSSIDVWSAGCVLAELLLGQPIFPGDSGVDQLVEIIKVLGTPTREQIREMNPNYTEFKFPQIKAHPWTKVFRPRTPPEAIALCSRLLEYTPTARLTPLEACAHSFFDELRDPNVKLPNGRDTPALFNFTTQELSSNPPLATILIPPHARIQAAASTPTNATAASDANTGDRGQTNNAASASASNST
Summary of the method: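 Human GSK3β (5 nM) preincubated 15 min with 10 μM biotinylated phospho-CREB peptide in pH 7.5 Tris buffer (15 mM MgCl2, 1 mM DTT, 0.1% BSA, 2.5% DMSO). Reaction started with 2 μM ATP and run to about 50% ATP depletion. Remaining ATP measured by KinaseGlo luminescence.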

PIM3 = PIM3 (Homo sapiens, UniProt Q86V86); assay: KinaseGlo Pim3 ATP depletion assay; assay type: biochemical
Summary of the method: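 Kinase was preincubated 15 min with BAD peptide in HEPES pH 7.5/MgCl2/DTT/BSA before ATP was added. Final concentrations were 40 μM ATP, 100 μM BAD peptide and 2.5% DMSO, with 5 nM enzyme. The reaction ran to ~50% ATP depletion and remaining ATP was read by KinaseGlo Plus luminescence.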

PIM2 = PIM2 (Homo sapiens, UniProt Q9P1W9); assay: KinaseGlo Pim2 ATP depletion assay; assay type: biochemical
PIM2, sequence (Q9P1W9 whole entry): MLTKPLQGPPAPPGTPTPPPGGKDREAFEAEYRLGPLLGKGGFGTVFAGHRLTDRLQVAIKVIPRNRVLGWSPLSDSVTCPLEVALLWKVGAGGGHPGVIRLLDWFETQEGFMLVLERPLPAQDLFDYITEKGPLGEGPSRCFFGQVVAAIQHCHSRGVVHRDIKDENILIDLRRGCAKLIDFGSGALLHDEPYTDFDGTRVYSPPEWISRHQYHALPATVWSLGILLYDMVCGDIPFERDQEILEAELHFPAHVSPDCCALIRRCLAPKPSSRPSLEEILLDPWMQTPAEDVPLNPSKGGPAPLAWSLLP
Summary of the method: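 Luminescent ATP-depletion read-out of PIM2 phosphorylating BAD peptide (RSRHSSYPAGT-OH). Final conditions: 5 nM PIM2, 4 μM ATP, 10 μM peptide, 2.5% DMSO in 50 mM HEPES pH 7.5, 5 mM MgCl2, 1 mM DTT, 0.05% BSA. Enzyme–peptide preincubated 15 min with compound; reaction run to ~50% ATP depletion.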

PIM1 = PIM1 (Homo sapiens, UniProt P11309); assay: KinaseGlo Pim1 ATP depletion assay; assay type: biochemical
PIM1, sequence (P11309 whole entry): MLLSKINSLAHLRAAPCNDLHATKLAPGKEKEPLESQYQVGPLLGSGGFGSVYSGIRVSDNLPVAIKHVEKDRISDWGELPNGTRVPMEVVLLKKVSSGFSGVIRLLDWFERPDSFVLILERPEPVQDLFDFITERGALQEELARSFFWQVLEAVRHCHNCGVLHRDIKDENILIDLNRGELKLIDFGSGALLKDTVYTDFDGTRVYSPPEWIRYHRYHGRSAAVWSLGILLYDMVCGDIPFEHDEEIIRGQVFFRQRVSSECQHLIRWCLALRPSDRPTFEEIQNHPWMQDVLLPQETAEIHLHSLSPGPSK
Summary of the method: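 2.5 nM PIM1 preincubated 15 min with compound and 40 μM BAD peptide in 50 mM HEPES pH 7.5, 5 mM MgCl2, 1 mM DTT, 0.05% BSA, 2.5% DMSO. The reaction was started with 20 μM ATP (final) and run to about 50% ATP depletion. Remaining ATP read by KinaseGlo Plus luminescence to give IC50.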

| EC50 ([1]; Homo sapiens, KMS-11) [µM] | IC50 (GSK3β) [µM] | IC50 (PIM3) [µM] | IC50 (PIM2) [µM] | IC50 (PIM1) [µM] | EC50 [1] [µM] | SMILES |
| --- | --- | --- | --- | --- | --- | --- |
| > 10 | 0.235 | 0.014 | 0.027 | 0.024 |  | N#CC[C@H]1O[C@@H](c2ccncc2NC(=O)c2nc(-c3c(F)cccc3F)ncc2N)C[C@@H](O)[C@@H]1O [Example 138, 5-amino-N-(4-((2R,4R,5S,6R)-6-(cyanomethyl)-4,5-dihydroxytetrahydro-2H-pyran-2-yl)pyridin-3-yl)-2-(2,6-difluorophenyl)pyrimidine-4-carboxamide] |
| > 10 | 0.45 | 0.002 | 0.005 | 0.001 |  | N#CC[C@H]1O[C@@H](c2ccncc2NC(=O)c2nc(-c3c(F)cccc3F)c(F)cc2N)C[C@@H](O)[C@@H]1O [Example 139, 3-amino-N-(4-((2R,4R,5S,6R)-6-(cyanomethyl)-4,5-dihydroxytetrahydro-2H-pyran-2-yl)pyridin-3-yl)-6-(2,6-difluorophenyl)-5-fluoropicolinamide] |
| > 10 | 2.25 | 0.019 | 0.054 | 0.018 |  | CC[C@H]1O[C@@H](c2ccncc2NC(=O)c2nc(-c3nccs3)ccc2N)C[C@@H](O)[C@@H]1O [Example 140, 3-amino-N-(4-((2R,4R,5S,6R)-6-ethyl-4,5-dihydroxytetrahydro-2H-pyran-2-yl)pyridin-3-yl)-6-(thiazol-2-yl)picolinamide] |
| > 10 | 3.36 | 0.094 | 0.72 | 0.181 |  | NC(=O)[C@H]1O[C@@H](c2ccncc2NC(=O)c2ccc(F)c(-c3c(F)cccc3F)n2)C[C@@H](O)[C@@H]1O [Example 141, N-(4-((2R,4R,5S,6S)-6-carbamoyl-4,5-dihydroxytetrahydro-2H-pyran-2-yl)pyridin-3-yl)-6-(2,6-difluorophenyl)-5-fluoropicolinamide] |
| > 10 | > 25 | 0.89 | 6.6 | 1.08 |  | NC(=O)C[C@H]1O[C@@H](c2ccncc2NC(=O)c2ccc(F)c(-c3c(F)cccc3F)n2)C[C@@H](O)[C@@H]1O [Example 142, N-(4-((2R,4R,5S,6R)-6-(2-amino-2-oxoethyl)-4,5-dihydroxytetrahydro-2H-pyran-2-yl)pyridin-3-yl)-6-(2,6-difluorophenyl)-5-fluoropicolinamide] |
| 4.34 | 0.394 | 0.0043 | 0.0037 | 0.0053 |  | C=C[C@H]1OC(c2ccncc2NC(=O)c2nc(-c3c(F)cccc3F)ncc2N)=C[C@@H](O)[C@@H]1O [Example 144, 5-amino-2-(2,6-difluorophenyl)-N-(4-((2R,3S,4R)-3,4-dihydroxy-2-vinyl-3,4-dihydro-2H-pyran-6-yl)pyridin-3-yl)pyrimidine-4-carboxamide] |
|  | 2.25 | 0.0194 | 0.0575 | 0.0184 | > 10 | CC[C@H]1O[C@@H](c2ccncc2NC(=O)c2nc(-c3nccs3)ccc2N)C[C@@H](O)[C@@H]1O [Example 145, 3-amino-N-(4-((2R,4R,5S,6R)-6-ethyl-4,5-dihydroxytetrahydro-2H-pyran-2-yl)pyridin-3-yl)-6-(thiazol-2-yl)picolinamide] |
| > 10 | 0.345 | 0.0051 | 0.0095 | 0.0057 |  | C[C@H]1O[C@@H](c2ccncc2NC(=O)c2nc(-c3c(F)cccc3F)ncc2N)C[C@@H](O)[C@]1(C)O [Example 146, 5-amino-2-(2,6-difluorophenyl)-N-(4-((2R,4R,5S,6R)-4,5-dihydroxy-5,6-dimethyltetrahydro-2H-pyran-2-yl)pyridin-3-yl)pyrimidine-4-carboxamide] |
| > 10 | 1.32 | 0.0185 | 0.0713 | 0.0174 |  | C[C@H]1O[C@@H](c2ccncc2NC(=O)c2nc(-c3nccs3)ccc2N)C[C@@H](O)[C@]1(C)O [Example 147, 3-amino-N-(4-((2R,4R,5S,6R)-4,5-dihydroxy-5,6-dimethyltetrahydro-2H-pyran-2-yl)pyridin-3-yl)-6-(thiazol-2-yl)picolinamide] |
| > 10 | 0.691 | 0.0204 | 0.0303 | 0.0297 |  | N#C[C@H]1O[C@@H](c2ccncc2NC(=O)c2nc(-c3c(F)cccc3F)ncc2N)C[C@@H](O)[C@@H]1O [Example 148, 5-amino-N-(4-((2R,4R,5S,6R)-6-cyano-4,5-dihydroxytetrahydro-2H-pyran-2-yl)pyridin-3-yl)-2-(2,6-difluorophenyl)pyrimidine-4-carboxamide] |
| > 10 | 0.209 | 0.143 | 0.458 | 0.0798 |  | N#C[C@H]1O[C@@H](c2ccncc2NC(=O)c2ccnc(-c3c(F)cccc3F)n2)C[C@@H](O)[C@@H]1O [Example 149, N-(4-((2R,4R,5S,6R)-6-cyano-4,5-dihydroxytetrahydro-2H-pyran-2-yl)pyridin-3-yl)-2-(2,6-difluorophenyl)pyrimidine-4-carboxamide] |
| > 10 | 0.207 | 0.0533 | 0.156 | 0.0571 |  | N#C[C@H]1O[C@@H](c2ccncc2NC(=O)c2nc(-c3nccs3)ccc2N)C[C@@H](O)[C@@H]1O [Example 150, 3-amino-N-(4-((2R,4R,5S,6R)-6-cyano-4,5-dihydroxytetrahydro-2H-pyran-2-yl)pyridin-3-yl)-6-(thiazol-2-yl)picolinamide] |
| > 10 | 1.43 | 0.0251 | 0.0842 | 0.0052 |  | Nc1cc(F)c(-c2ccccc2F)nc1C(=O)Nc1cnccc1C1=CC(=O)[C@H](O)[C@@H](CCl)O1 [Example 151, 3-amino-N-(4-((2S,3R)-2-(chloromethyl)-3-hydroxy-4-oxo-3,4-dihydro-2H-pyran-6-yl)pyridin-3-yl)-5-fluoro-6-(2-fluorophenyl)picolinamide] |
|  | 0.45 | 0.0023 | 0.0054 | 0.0013 | > 10 | N#CC[C@H]1O[C@@H](c2ccncc2NC(=O)c2nc(-c3c(F)cccc3F)c(F)cc2N)C[C@@H](O)[C@@H]1O [Example 152, 3-amino-N-(4-((2R,4R,5S,6R)-6-(cyanomethyl)-4,5-dihydroxytetrahydro-2H-pyran-2-yl)pyridin-3-yl)-6-(2,6-difluorophenyl)-5-fluoropicolinamide] |
|  | 0.235 | 0.0135 | 0.0267 | 0.0236 | > 10 | N#CC[C@H]1O[C@@H](c2ccncc2NC(=O)c2nc(-c3c(F)cccc3F)ncc2N)C[C@@H](O)[C@@H]1O [Example 153, 5-amino-N-(4-((2R,4R,5S,6R)-6-(cyanomethyl)-4,5-dihydroxytetrahydro-2H-pyran-2-yl)pyridin-3-yl)-2-(2,6-difluorophenyl)pyrimidine-4-carboxamide] |
| 4.92 | 0.374 | 0.0053 | 0.0463 | 0.004 |  | CC[C@]1(O)[C@H](O)C[C@H](c2ccncc2NC(=O)c2nc(-c3ncccc3F)ccc2N)O[C@@H]1C [Example 155, 5-amino-N-(4-((2R,4R,5S,6R)-5-ethyl-4,5-dihydroxy-6-methyltetrahydro-2H-pyran-2-yl)pyridin-3-yl)-3′-fluoro-2,2′-bipyridine-6-carboxamide] |
| > 10 | 0.0219 | 0.0424 | 0.532 | 0.0254 |  | CC[C@]1(O)[C@H](O)C[C@H](c2ccncc2NC(=O)c2nc(-c3cnn(C)c3C)ccc2N)O[C@@H]1C [Example 156, 3-amino-6-(1,5-dimethyl-1H-pyrazol-4-yl)-N-(4-((2R,4R,5S,6R)-5-ethyl-4,5-dihydroxy-6-methyltetrahydro-2H-pyran-2-yl)pyridin-3-yl)picolinamide] |
| 9.63 | 0.0079 | 0.0081 | 0.0346 | 0.008 |  | CC[C@]1(O)[C@H](O)C[C@H](c2ccncc2NC(=O)c2nc(-c3ccncc3F)ccc2N)O[C@@H]1C [Example 157, 5-amino-N-(4-((2R,4R,5S,6R)-5-ethyl-4,5-dihydroxy-6-methyltetrahydro-2H-pyran-2-yl)pyridin-3-yl)-3′-fluoro-2,4′-bipyridine-6-carboxamide] |
| > 10 | 0.0231 | 0.0069 | 0.0681 | 0.0088 |  | CC[C@]1(O)[C@H](O)C[C@H](c2ccncc2NC(=O)c2ncccc2N)O[C@@H]1C [Example 158, 3-amino-N-(4-((2R,4R,5S,6R)-5-ethyl-4,5-dihydroxy-6-methyltetrahydro-2H-pyran-2-yl)pyridin-3-yl)picolinamide] |
